Assay results from patent publication US20180008593A1 (Purdue Pharma L.P., priority 2005, published 2018).

What was measured:
[1] = system: oxycodone-pump and vehicle-pump implanted rats; experiment: Oxycodone tolerance: tail withdrawal dose response in pump-implanted rats, Example 5; type: in vivo, rat
Description: Animals were randomized and acclimated for one week as described in Section 3.1. Vehicle control pumps contained sterile filtered isotonic saline. Alzet 2ML 1 osmotic mini pumps were loaded with oxycodone solution as described in “Alzet Osmotic Minipumps: Technical Information Manual” from DURECT Corp., Cupertino, Calif. The loaded pumps were primed by placing them in sterile isotonic saline at 37° […] for 3-h before implanting them in the rats. The rats were briefly anesthetized with isoflurane USP (Henry Schein, Inc. Melville, N.Y., U.S.A.) for implantation of 2ML 1 osmotic minipumps that deliver at a rate […]. After induction of anesthesia (as noted by the absence of the righting reflex and foot pinch response). Sterile scissors were used to make a 1.5 cm incision that was expanded under the skin with hemostats in a caudal direction to open the subcutaneous space for the pump. A sterile 2ML 1 pump was then inserted under the skin and moved to the dorsum. The rats were returned to their home cages and monitored until they completely recovered from anesthesia. Pump delivery began at 4-h (DU REGT Corp.) allowing the rats 1-h to recover from the anesthesia. Therefore, time zero began 1-h after implantation of the pumps. The rats were monitored daily for signs of distress, drug toxicity, or problems with the surgical site.
If the value was below 50% then the predicted level of tolerance was greater than 10-fold. The infusion dose that elicited approximately a 50% MPE with the challenge was selected as the 10-fold model of tolerance.
After this, the individual groups (8/group) were challenged with increasing doses of oxycodone for construction of a dose-response curve for calculation of the ED80 value. Potency-ratio determinations were made between the oxycodone-pump and vehicle-pump groups.

[2] = system: male Sprague-Dawley rats; experiment: 51° C. warm-water tail withdrawal test, i.v. oxycodone in opioid naive rats, Example 5
[3] = system: patients with severe chronic pain; experiment: Incidence and duration of diarrhea and discontinuations due to diarrhea, Example 1; details: naloxone 0 mg
[4] = system: experimental human pain model, healthy volunteers; experiment: Pain-related evoked potentials (EEG) after CO2 stimulation of the nasal mucosa, Example 4; type: in vivo
Description: This was a single site, single dose, double blind, placebo-controlled, 5-treatment, 5-period, randomized, balanced crossover study in healthy adult male and female subjects. […] Subjects were allocated each of the 5 treatments described in the synopsis according to a random allocation schedule (RAS). There was a 7-day washout period
Analgesic effects were assessed by means of an experimental human pain model based on the chemosomatosensory pain-related cortical potentials (CSSEPs) and pain-ratings after specific phasic nociceptive stimulation of the nasal mucosa with gaseous CO2. In addition, intensity estimates of tonic pain produced by stimulation of the nasal mucosa with dry air at controlled flow and temperature were employed.
Within the present pain model, the following were used as indicators of analgesia: • post-treatment decrease in pain-ratings and/or • post-treatment decrease in amplitudes of pain-related evoked potentials and/or • post-treatment increase in latencies of pain-related evoked potentials, relative to the pretreatment values.
1. Base-to-peak amplitudes P1, N1 and P2, peak-to-peak amplitudes P1 N1 and N1P2 of pain related evoked potentials 2. Latencies P1, N1 and P2 of pain-related evoked potentials 3. Intensity estimates of phasic (C02-) pain 4. Intensity estimates of tonic pain
In the first 20 minutes, 40 phasic CO2-stimuli were applied (20 stimuli at a concentration of 70% and 20 at a concentration of 60%, interstimulus interval 30 s). In response to these stimuli, pain-related potentials and subjective intensity estimates were recorded.
CO2-stimuli were mixed in a constantly flowing air stream with controlled temperature (36.5° C.) and humidity (80% relative humidity) presented to the left nostril (stimulus duration 200 ms, interstimulus interval 30 s). […] During intervals between phasic stimuli subjects performed a simple tracking task on a video screen. Using a joystick, they had to keep a small square inside a larger one that randomly moved around.
The EEG was recorded from 5 positions of the international 10/20 system (Cz, C3, C4, Fz and Pz; see FIG. 40) referenced to linked earlobes (A1+A2). Possible eye blink artifacts were monitored from an additional site (Fp2/A1+A2). Stimulus linked EEG segments of 2040 ms duration were sampled with a frequency of 250 Hz (band pass 0.2-30 Hz, pre-stimulus period 512 ms). The recorded analog EEG segments were then converted to digital and filed electronically. The average value for each recording position was separately calculated, discarding all eye blink contaminated records. By this procedure pain-related evoked potentials were obtained in response to the painful CO2 stimuli. Base to peak amplitudes P1, N1 and P2, the peak to peak amplitudes P1 N1 and N1 P2 and the latencies of P1, […] and P2 were measured. Wherever the time of measurement was used in the data analysis, the mid-time of a session was taken. FIG. 40 presents the components of the pain-related evoked potentials.

[5] = 0.3 mg/kg oxycodone free-base i.v.

SMILES: COc1ccc2c3c1O[C@H]1C(=O)CC[C@@]4(O)[C@@H](C2)N(C)CC[C@]314 [Oxycodone, oxycodone]
- Rightward shift in the oxycodone dose-response curve (tolerance) ([1]; 7-day oxycodone infusion […] vs vehicle pump): 8.5 fold
- ED50 ([1]; Rattus norvegicus, iv, i.v. oxycodone, vehicle-pump implanted rats, read-out: ED50 value (antinociception)): 0.32 mg/kg
- % MPE on challenge with […] oxycodone ([1]; after s.c. oxycodone infusion […] for 7 days): ~50 % MPE
- First test point at which antinociception was present [2, 5]: 2.5 min
- Obvious signs (sedation, motor control, respiration, toxicity) [2, 5]: no obvious signs were noted
- Time antinociception stayed significantly above baseline latencies [2, 5]: 40 min
- Peak time of antinociception ([2]; 0.3 mg/kg oxycodone free-base i.v., 51° C. tail withdrawal): 10 min
- ED80 value (antinociception) ([2]; oxycodone free-base i.v., tested at 10-min): 0.41 mg/kg
- Discontinuations due to Diarrhea, n/N ([3]; daily oxycodone 40 mg): 0/17
- Incidence of Discontinuations due to Diarrhea ([3]; daily oxycodone 40 mg): (0.0%)
- Discontinuations due to Diarrhea, n/N ([3]; daily oxycodone 60 mg): 0/17
- Incidence of Discontinuations due to Diarrhea ([3]; daily oxycodone 60 mg): (0.0%)
- Discontinuations due to Diarrhea, n/N ([3]; daily oxycodone 80 mg): 0/16
- Incidence of Discontinuations due to Diarrhea ([3]; daily oxycodone 80 mg): (0.0%)
- Magnitude of reduction of amplitude P1N1 at C4 compared to baseline ([4]; 60% CO2, 20 mg oxycodone): 35.3%
- Amplitude P1N1 of pain-related evoked potentials ([4]; 60% CO2, recording position C4): significant compared to placebo
- Latency P1 of pain-related evoked potentials ([4]; 60% CO2, recording position C4): significant compared to placebo
- Latency P1 of pain-related evoked potentials ([4]; 60% CO2, recording position Pz): significant compared to placebo
- Latency P1 of pain-related evoked potentials ([4]; 70% CO2, recording position C3): significant compared to placebo
- Latency P1 of pain-related evoked potentials ([4]; 70% CO2, recording position Cz): significant compared to placebo
- Latency P2 of pain-related evoked potentials ([4]; 70% CO2, recording position Cz): significant compared to placebo
- Latency P1 of pain-related evoked potentials ([4]; 70% CO2, recording position Fz): significant compared to placebo
- Latency P1 of pain-related evoked potentials ([4]; 70% CO2, recording position Pz): significant compared to placebo
- Latency P2 of pain-related evoked potentials ([4]; 70% CO2, recording position Pz): significant compared to placebo
